According to the supplement of paper PMC6045584:
± gives the standard deviation of the averaged measurements.

Legend:
METHOTREXATE = compound: CN(Cc1cnc2nc(N)nc(N)c2n1)c1ccc(C(=O)N[C@@H](CCC(=O)O)C(=O)O)cc1 [METHOTREXATE]; test: surviving fraction relative to DMSO-only wells; higher = less growth inhibition; details: exposure time: 5 days
In short: (§1)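 Luminescence normalised to the median of DMSO-only wells defines surviving fraction, with viability read by CellTiter-Glo. Signal was recorded after 10 minutes at room temperature, once log-phase tumour cell lines seeded at 250–500 cells per well in 384-well plates had spent 24 hours settling and then five days under continuous exposure to inhibitors at 0.5, 1, 5, 10, 50, 100, 500 and 1000 nM.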

MK2206 = compound: NC1(c2ccc(-c3nc4ccn5c(=O)[nH]nc5c4cc3-c3ccccc3)cc2)CCC1 [MK2206]; test: as above; details: exposure time: 5 days
In short: as §1

Test System | surviving fraction (METHOTREXATE; 0.5 nM) | surviving fraction (METHOTREXATE; 1 nM) | surviving fraction (METHOTREXATE; 5 nM) | surviving fraction (METHOTREXATE; 10 nM) | surviving fraction (METHOTREXATE; 50 nM) | surviving fraction (METHOTREXATE; 100 nM) | surviving fraction (METHOTREXATE; 500 nM) | surviving fraction (METHOTREXATE; 1000 nM) | surviving fraction (MK2206; 0.5 nM) | surviving fraction (MK2206; 1 nM) | surviving fraction (MK2206; 5 nM) | surviving fraction (MK2206; 10 nM) | surviving fraction (MK2206; 50 nM) | surviving fraction (MK2206; 100 nM) | surviving fraction (MK2206; 500 nM) | surviving fraction (MK2206; 1000 nM)
HU09 BONE | 1.07 ± 0.17 | 1 ± 0.055 | 1.15 ± 0.085 | 1.06 ± 0.059 | 0.589 ± 0.031 | 0.459 ± 0.051 | 0.335 ± 0.018 | 0.337 ± 0.043 | 0.85 ± 0.065 | 0.971 ± 0.0053 | 0.991 ± 0.18 | 1.06 ± 0.094 | 0.849 ± 0.039 | 0.63 ± 0.05 | 0.363 ± 0.034 | 0.272 ± 0.016
JIMT1 BREAST | 1.02 ± 0.053 | 0.999 ± 0.026 | 0.579 ± 0.035 | 0.533 ± 0.044 | 0.305 ± 0.028 | 0.286 ± 0.029 | 0.285 ± 0.042 | 0.295 ± 0.017 | 0.965 ± 0.025 | 0.996 ± 0.017 | 0.999 ± 0.049 | 1.02 ± 0.01 | 0.929 ± 0.012 | 0.917 ± 0.027 | 0.68 ± 0.023 | 0.633 ± 0.034
JURKAT HAEMATOPOIETIC AND LYMPHOID TISSUE | 1.02 ± 0.012 | 1.02 ± 0.035 | 1.02 ± 0.03 | 0.404 ± 0.012 | 0.036 ± 0.001 | 0.0293 ± 0.0015 | 0.0293 ± 0.00058 | 0.031 | 1 ± 0.013 | 1.03 ± 0.03 | 0.92 ± 0.016 | 0.987 ± 0.022 | 0.871 ± 0.0053 | 0.787 ± 0.025 | 0.471 ± 0.01 | 0.274 ± 0.0046
KPD BONE | 1.06 ± 0.061 | 1.02 ± 0.043 | 1.12 ± 0.035 | 1.09 ± 0.076 | 1.08 ± 0.087 | 1.17 ± 0.021 | 1.02 ± 0.024 | 1.05 ± 0.047 | 1 ± 0.043 | 0.979 ± 0.031 | 0.944 ± 0.075 | 0.931 ± 0.047 | 0.634 ± 0.013 | 0.467 ± 0.024 | 0.252 ± 0.0083 | 0.195 ± 0.0091
LM7 BONE | 1.061 ± 0.0066 | 0.974 ± 0.085 | 1.13 ± 0.015 | 1.17 ± 0.06 | 0.919 ± 0.033 | 0.885 ± 0.065 | 0.699 ± 0.042 | 0.64 ± 0.023 | 0.991 ± 0.019 | 0.998 ± 0.043 | 1.04 ± 0.046 | 1.03 ± 0.055 | 0.84 ± 0.069 | 0.818 ± 0.056 | 0.628 ± 0.041 | 0.579 ± 0.016
MCF7 BREAST | 0.973 ± 0.011 | 0.989 ± 0.05 | 0.734 ± 0.048 | 0.587 ± 0.033 | 0.569 ± 0.011 | 0.588 ± 0.035 | 0.573 ± 0.039 | 0.572 ± 0.024 | 0.947 ± 0.046 | 0.942 ± 0.052 | 0.933 ± 0.044 | 0.916 ± 0.034 | 0.882 ± 0.065 | 0.841 ± 0.078 | 0.659 ± 0.033 | 0.62 ± 0.042
MDAMB134 BREAST | 0.929 ± 0.039 | 0.947 ± 0.04 | 0.899 ± 0.052 | 0.848 ± 0.027 | 1.12 ± 0.21 | 0.858 ± 0.073 | 0.75 ± 0.06 | 0.75 ± 0.011 | 1 ± 0.079 | 0.89 ± 0.29 | 0.921 ± 0.0014 | 0.891 ± 0.14 | 0.703 ± 0.016 | 0.783 ± 0.072 | 0.629 ± 0.13 | 0.673 ± 0.18
MDAMB157 BREAST | 1.02 ± 0.12 | 0.908 ± 0.012 | 1.05 ± 0.023 | 1.02 ± 0.09 | 0.946 ± 0.01 | 0.947 ± 0.06 | 0.839 ± 0.044 | 0.857 ± 0.076 | 0.952 ± 0.052 | 0.999 ± 0.02 | 1.06 ± 0.026 | 0.963 ± 0.081 | 0.96 ± 0.053 | 0.949 ± 0.019 | 0.947 ± 0.048 | 0.904 ± 0.1
